Laboratory results from patent EP0799834A1, “Modified nucleotides” (priority 1996, dated 1997).

Key:
Type in all cases: biochemical
[1] = biological target: T1, M-MuLV RT (Moloney murine leukemia virus, UniProt P03355); test: Chain elongation: addition of modified nucleotide to primer by reverse transcriptase (gel autoradiography); parameters: key: +: slow addition of modified nucleotide to the primer; ++: good addition of modified nucleotide to the primer; -: no addition of modified nucleotide to the primer; details: M-MuLV RT 9 units; modified nucleotide 100 µM; dATP, dGTP, dCTP 15.0 µM each; 37°C
T1 construct: M-MuLV RT
Description: (§1) The triposphates of the modified nucleotides are synthesized as described by Kovács & Ötvös (Tetrahedron Lett. (1988), 29, […]) • 5' P^32-[…]-OH SEQ ID NO:1 • 3' HO-[…]-OH SEQ ID NP:2
(§2) A solution of template (3.0 pmol of SEQ ID NO:2) and radioactive primer (0.8 pmol of SEQ ID NO:1) in 72 µl buffer (20 mM Tris-HCl, pH 7.5; 6 mM MgCl2; 40 mM KCl; 0.5 mM DTT) are heated to 80°C and allowed to cool down to 25°C within one hour. To this solution polymerase (see table 1) is added. Aliquots of thereof are mixed with 4 µl of a solution comprising dATP, dGTP, dCTP and the modified nucleotide (see table 1), resulting in a final concentration of dATP, dGTP and dCTP as provided in table 1 and a final concentration of the modified nucleotide of 100 µM. The solutions are incubated at 37°C and the elongation reaction is stopped by addition of 5 µl of a solution of formamide comprising 5 mM EDTA (pH 8.0).
(§3) 3-5 µl of these solutions are subjected to a polyacrylamide gel (19 % acrylamide, 7 M urea). After electrophoresis the gel is transferred to a filter paper, dried and analyzed using autoradiography (see table 2).

[2] = test system: AMV RT; test: as above; parameters: key: +: slow addition of modified nucleotide to the primer; ++: good addition of modified nucleotide to the primer; -: no addition of modified nucleotide to the primer; details: AMV RT 2.0 units; modified nucleotide 100 µM; dATP, dGTP, dCTP 0.5 µM each; 37°C
Description: as §1, §2, §3

[3] = biological target: T2, HIV-1RT (Human immunodeficiency virus type 1 group M subtype B, UniProt P04585); test: as above; parameters: key to addition of modified nucleotide to the primer: +: slow addition of modified nucleotide to the primer; ++: good addition of modified nucleotide to the primer; -: no addition of modified nucleotide to the primer; details: HIV-1RT 0.13 units; modified nucleotide 100 µM; dATP, dGTP, dCTP 1.0 µM each; 37°C
T2 construct: HIV-1RT
Description: as §1, §2, §3

[4] = biological target: T3, Klenow (Escherichia coli, UniProt P00582); test: Chain elongation: addition of modified nucleotide to primer by polymerase (gel autoradiography); parameters: key: +: slow addition of modified nucleotide to the primer; ++: good addition of modified nucleotide to the primer; -: no addition of modified nucleotide to the primer; details: Klenow 1.5 units; modified nucleotide 100 µM; dATP, dGTP, dCTP 0.5 µM each; 37°C
T3 construct: Klenow
Description: as §1, §2, §3

[5] = biological target: T7 sequenase version 2 (Escherichia phage T7, UniProt P00581, DEL118-145); test: as above; parameters: key: +: slow addition of modified nucleotide to the primer; ++: good addition of modified nucleotide to the primer; -: no addition of modified nucleotide to the primer; details: T7 sequenase version 2 0.13 units; modified nucleotide 100 µM; dATP, dGTP, dCTP 2.5 µM each; 37°C
Description: as §1, §2, §3

T3 sequence (P00582 324-928): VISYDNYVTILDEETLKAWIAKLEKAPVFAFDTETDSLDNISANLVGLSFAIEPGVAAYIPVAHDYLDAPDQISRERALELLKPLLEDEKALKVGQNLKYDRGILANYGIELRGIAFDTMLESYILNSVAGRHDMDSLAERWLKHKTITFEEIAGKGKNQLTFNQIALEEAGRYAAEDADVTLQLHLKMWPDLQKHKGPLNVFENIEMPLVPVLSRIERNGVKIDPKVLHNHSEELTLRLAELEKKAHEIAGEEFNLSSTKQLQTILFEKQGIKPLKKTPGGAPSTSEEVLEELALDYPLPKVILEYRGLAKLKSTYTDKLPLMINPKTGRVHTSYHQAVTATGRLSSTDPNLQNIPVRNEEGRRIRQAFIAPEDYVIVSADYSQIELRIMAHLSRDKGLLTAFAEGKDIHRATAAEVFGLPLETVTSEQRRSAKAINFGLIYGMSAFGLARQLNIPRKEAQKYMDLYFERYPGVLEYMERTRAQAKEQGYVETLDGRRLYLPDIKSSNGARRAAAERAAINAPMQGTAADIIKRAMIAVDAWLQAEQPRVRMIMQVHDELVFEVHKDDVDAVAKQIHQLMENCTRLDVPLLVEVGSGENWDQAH
Sequence of T7 sequenase version 2 (P00581 other isoform, or with tags, fused parts or gaps DEL118-145): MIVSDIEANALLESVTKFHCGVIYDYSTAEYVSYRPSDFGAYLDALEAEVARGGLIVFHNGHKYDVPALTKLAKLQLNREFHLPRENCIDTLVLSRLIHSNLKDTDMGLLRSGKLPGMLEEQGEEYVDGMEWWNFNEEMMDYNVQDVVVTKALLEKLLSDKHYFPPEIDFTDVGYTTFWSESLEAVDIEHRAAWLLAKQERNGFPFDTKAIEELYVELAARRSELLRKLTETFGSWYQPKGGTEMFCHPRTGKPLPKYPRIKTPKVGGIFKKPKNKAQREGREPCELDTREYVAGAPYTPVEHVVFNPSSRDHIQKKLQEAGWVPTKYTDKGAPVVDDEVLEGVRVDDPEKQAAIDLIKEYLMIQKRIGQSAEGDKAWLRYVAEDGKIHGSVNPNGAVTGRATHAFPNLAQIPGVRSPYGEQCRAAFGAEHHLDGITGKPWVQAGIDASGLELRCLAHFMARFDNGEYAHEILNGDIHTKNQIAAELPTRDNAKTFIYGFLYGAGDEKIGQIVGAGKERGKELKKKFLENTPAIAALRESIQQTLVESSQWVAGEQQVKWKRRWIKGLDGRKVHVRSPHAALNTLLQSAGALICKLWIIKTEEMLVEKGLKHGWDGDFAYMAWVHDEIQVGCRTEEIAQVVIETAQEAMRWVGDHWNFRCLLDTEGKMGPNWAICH
Sequence of T7 sequenase version 2 (P0AA25 2-109, stated change not applied, further chain): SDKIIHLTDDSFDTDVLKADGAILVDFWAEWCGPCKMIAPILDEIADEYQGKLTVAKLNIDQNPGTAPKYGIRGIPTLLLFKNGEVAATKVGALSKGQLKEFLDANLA

| SMILES | addition of modified nucleotide to the primer [1] | addition of modified nucleotide to the primer [2] | addition of modified nucleotide to the primer [3] | addition of modified nucleotide to the primer [4] | addition of modified nucleotide to the primer [5] | elongation after addition of modified nucleotide [3] |
| --- | --- | --- | --- | --- | --- | --- |
| Cc1cn([C@H]2C[C@H](O)[C@](COP(=O)(O)OP(=O)(O)OP(=O)(O)O)(C(=O)c3ccccc3)O2)c(=O)[nH]c1=O [R^1=C6H5] | - | ++ | ++ | - | - |  |
| CCC(=O)[C@]1(COP(=O)(O)OP(=O)(O)OP(=O)(O)O)O[C@@H](n2cc(C)c(=O)[nH]c2=O)C[C@@H]1O [R^1=CH3CH2] | ++ | ++ | ++ | + | ++ |  |
| CC(=O)[C@]1(COP(=O)(O)OP(=O)(O)OP(=O)(O)O)O[C@@H](n2cc(C)c(=O)[nH]c2=O)C[C@@H]1O [R^1=CH3] | ++ | ++ | ++ | ++ | ++ | elongation |
| Cc1cn([C@H]2C[C@H](O)[C@](COP(=O)(O)OP(=O)(O)OP(=O)(O)O)(C(=O)C(C)(C)C)O2)c(=O)[nH]c1=O [R^1=t-butyl] | - | - | - | - | - |  |
